Laboratory results reported in patent publication US20060223812A1, “Treating neurodegenerative conditions” (MAX-PLANCK-GESELLSCHAFT ZUR FORDERUNGDER WISSENSCHAFTEN, …, priority 2004, published 2006).

Target: htau40 and tubulin dimer (Homo sapiens, UniProt P10636)
Test: Light scattering, tau-promoted microtubule assembly
Type: biochemical
Settings: 60 μM compound, 10 μM tau, 30 μM tubulin
Method: The repeat domain of tau is not only important for PHF aggregation but also for the physiological function of microtubule binding. Microtubule polymerisation assays were performed in the absence and presence of compounds (FIG. 9).
The ability of tau to promote microtubule assembly was monitored by light scattering at 350 nm in a Tecan spectrophotometer model Safire (Tecan, Crailsheim, Germany). Tau protein (10 μM) was mixed with tubulin dimer (30 μM) and GTP (1 mM) at 4° C. in polymerisation buffer (100 mM Na-PIPES pH 6.9, 1 mM EGTA, 1 mM MgSO4, 1 mM DTT), with a final volume of 40 μl. Htau40 and inhibitor compounds (60 μM) were added last. After rapid mixing, the samples were pipetted into a Greiner transparent flat bottom 384 well plate (4 mm path length), which was prewarmed at 37° C. The reaction was started by incubating the cooled components of the reaction at 37° C. The assembly of tubulin into microtubules was monitored over time by a change in turbidity. Three parameters were extracted from curves. The maximum turbidity at steady state, the rate of assembly, and the lag time between the temperature jump and the start of the turbidity rise.
FIG. 9: Effect of compounds on microtubule binding 30 μM tubulin dimer was incubated in a microtiter plate at 37° C. in the absence and presence of htau40 (10 μM) and 60 μM compound. Absorbance was taken at 350 nm and plotted versus time. […]

Sequence of htau40 and tubulin dimer (P10636 1-441 isoform P10636-8): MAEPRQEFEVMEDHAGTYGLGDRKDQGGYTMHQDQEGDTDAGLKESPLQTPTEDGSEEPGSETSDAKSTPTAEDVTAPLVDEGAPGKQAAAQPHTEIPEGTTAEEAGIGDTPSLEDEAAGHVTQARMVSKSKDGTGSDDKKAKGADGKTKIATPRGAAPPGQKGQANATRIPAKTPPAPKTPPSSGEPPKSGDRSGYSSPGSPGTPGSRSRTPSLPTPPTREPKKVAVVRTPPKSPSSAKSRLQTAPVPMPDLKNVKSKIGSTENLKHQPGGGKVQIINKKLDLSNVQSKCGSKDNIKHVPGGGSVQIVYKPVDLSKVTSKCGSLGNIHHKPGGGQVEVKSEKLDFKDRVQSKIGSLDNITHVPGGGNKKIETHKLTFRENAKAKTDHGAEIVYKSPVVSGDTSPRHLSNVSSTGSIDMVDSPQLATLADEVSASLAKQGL

## Nc1c(/N=N/c2ccc(-c3ccc(/N=N/c4cc(S(=O)(=O)O)c5ccccc5c4N)cc3)cc2)cc(S(=O)(=O)O)c2ccccc12 [Congo Red]
  rate and extent of microtubule polymerisation: not significantly affected
